Structures can show the parent of a compound that is named as a salt. Where two headings read alike, the source gives them in different places.
Tests used:
[1] = system: climbing behavior induced by apomorphine in mice; assay: apomorphine-induced climbing mice assay (neuroleptic activity); type: in vivo, CD-1 male mice; details: intraperitoneally 30 minutes prior to apomorphine 1.5 mg/kg s.c.
Protocol: Central Nervous System Depressant (Neuroleptic) Activity Climbing Mice Assay
The subject CD-1 male mice (23-27 grams) were group-housed under standard laboratory conditions. The mice were individually placed in wire mesh stick cages (4"×4"×10") and were allowed one hour for adaptation and exploration of the new environment. Then apomorphine was injected subcutaneously at 1.5 mg/kg, a dose causing climbing in all subjects for 30 minutes. Compounds to be tested for neuroleptic activity were injected intraperitoneally 30 minutes prior to the apomorphine challenge at a screening dose of 10 mg/kg.
For evaluation of climbing, 3 readings were taken at 10, 20 and 30 minutes after apomorphine administration according to the following scale:
Mice consistently climbing before the injection of apomorphine were discarded.
With full-developed apomorphine climbing, the animals were hanging onto the cage walls, rather motionless, over longer periods of time. By contrast, climbs due to mere motor stimulation usually only lasted a few seconds.
The climbing scores were individually totaled (maximal score: 6 per mouse over 3 readings) and the total score of the control group (vehicle intraperitineally -- apomorphine subcutaneously) was set to 100%.

tail flick in mice = assay: modified D'Amour-Smith analgesia (tail flick) assay; type: in vivo, male mice (Charles River: CD-1); details: generally s.c.
Description: Analgesic Activity Modified D'Amour-Smith Assay (Tail Flick)
Male mice (Charles River: CD-1) from 18-30 grams were used as test subjects. The mouse tails were individually placed on a "Vee" block and, subsequently, a painful stimulus was produced by an intense light beam (Emdie Instrument Co., Louisa, VA). The subject quickly responds to the noxious stimuli by flicking its tail. The reaction time, the interval between stimulus onset and response, was automatically measured in 1/10-second increments. Prior to drug administration, two control readings of reaction time were measured for each subject with approximately 15 minutes separating the tests. Subjects were discarded if their reaction times in these control tests varied by more than one second or if their inclusion in the study group caused the spread of reaction time to exceed three seconds.
The mean response time (x) and the standard deviation (SD) of the values were then calculated for each set of control scores. The formula presented below was used to calculate cut-off values (C.O.) for each set of control scores and the average of these C.O. values was used to determine evidence of analgesic activity in subsequent drug testing.
The C.O. value was actually a determination of a reaction time which exceeds the mean by two standard deviations. Any reaction time, in subsequent drug tests, which was greater than the C.O. value, therefore exceeds 95% of a normal Gaussian distribution and was called a "positive response" indicative of analgesic activity. Latency changes were calculated by subtracting the tail flick latency of the average control times from the latency after treatment for each mouse.
Compounds were tested in treatment groups of ten subjects and drugs, prepared in distilled water, were generally administered subcutaneously (s.c.) in volumes equivalent to 10 cc/kg. The initial testing was usually in the form of a time response at intervals of 15, 30, 45 and 60 minutes after dosing. If analgesic activity was still increasing at 60 minutes, then two additional groups were tested at 90 minute and 120 minute post dosing.
A time response indicated the period of greatest analgesic effect after dosing. Percent analgesic activity was calculated in the following manner: [formula] Grp.=Group Veh.=Vehicle
The ED50 was determined at the peak time of drug activity. A minimum of three dose groups were employed. Drugs were administered in a randomized manner. ED50 's were calculated using Litchfield-Wilcoxon (LITWL on PDP II) computer analysis.

[2] = system: tetrabenazine-induced depression (ptosis) in mice; assay: inhibition of tetrabenazine-induced depression (ptosis) in mice; type: in vivo; details: Mus musculus, read-out: ED50, 50% inhibition of the ptosis of the tetrabenazine-induced depression
Description: Thus, for instance, the intraperitoneal dose at which the following compounds effect a 50% inhibition of the ptosis of the tetrabenazine-induced depression (ED50) in mice are: […]

[3] = system: supramaximal electro shock in mice; assay: protection from supramaximal electro shock in mice (anticonvulsant); type: in vivo; details: Mus musculus, ip, intraperitoneal dose, read-out: ED50, approximately 50% protective from the effect of supramaximal electro shock
Description: Compounds of the present invention are still further useful as anticonvulsant agents for mammals, as determined by the method of Woodbury, L. A. and Davenport, V. D., in Arch. Int. Pharmacodynam, Vol. 92. (1952) at pages 97 to 107. Thus, for instance, the following intraperitoneal doses at which an approximately 50% protective (ED50) from the effect of supramaximal electro shock in mice are: […]

[4] = system: phenyl-p-quinone writhing in mice; assay: phenyl-p-quinone writhing assay in mice (analgesia); type: in vivo; details: Mus musculus, sc, subcutaneous dose, read-out: ED50, approximately 50% inhibition of writhing
Description: Compounds of the invention are further useful as analgesic agents due to their ability to alleviate pain in mammals. […] Exptl. Biol Med., 95 729 (1957)]. Thus for instance, the subcutaneous dose effecting an approximately 50% inhibition of writhing (ED50) in mice produced in this assay is as follows: […]

[5] = stability study, gas chromatographic assay (acid stability); type: physicochemical
Protocol: Gas chromatographic conditions were established under which 2-fluoro-11-[β-(dimethylamino)ethoxy]dibenz[b,f]oxepin (as the hydrobromide or hydrochloride salts), 2-fluoro-11-[β-(dimethylamino)ethylthio]dibenz[b,f]oxepin (as the hydrobromide salt) and 10,11-dihydro-10-oxodibenz[b,f]oxepin were separated:
Column-Glass 2m×2mm ID packed with 3% OV-225 on 80/100 supelcoport
Temperature: Isothermal at 220° C.
Flow Rate: He at 45 ml/min
Instrument: Perkin-Elmer 3920B
Solutions of 2-fluoro-11-[β-(dimethylamino)ethoxy]dibenz[b,f]oxepin and 2-fluoro-11-[β-(dimethylamino)ethylthio]dibenz[b,f]oxepin were prepared in water at a concentration of 200 mg/100 ml. Portions of these stock aqueous solutions were used in each of the following experiments. All aqueous samples were prepared for gas chromotographic (GC) injection by first adding sodium carbonate solution to adjust the pH to 9 and then extracting with ethyl acetate. The ethyl acetate layer was separated and 2.0μ of it were injected.
II. Acidification of 2.0 ml of 2-fluoro-11-[β-(dimethylamino)ethoxy]dibenz[b,f]oxepin stock solution with 0.2 ml of concentrated hydrochloric acid and standing at ambient temperature produced increases in the levels of 10,11-dihydro-10-oxodibenz[b,f]oxepin beyond the 0.2% level initially contaminating the sample of 2-fluoro-11-[β-(dimethylamino)ethoxy]dibenz[b,f]oxepin.
III. Simultaneous experiments were performed using 2.0 ml of each stock solution of […] and 2-fluoro-11-[β-(dimethylamino)ethylthio]dibenz[b,f]oxepin in individual test tubes. Acidification of each solution with 0.2 ml of concentrated hydrochloric acid and side by side warming (not reflux) for 2 minutes (electric heat gun) produced a visible change.

[6] = M. Protvia, et al. Il Farmaco XXI, 98 (1966); cited from earlier work
[7] = 0.2 ml concentrated hydrochloric acid, warming (not reflux) for 2 minutes

## CSc1ccc2c(c1)C(SCCN(C)C)=Cc1ccccc1O2 [11-[β-(dimethylamino)ethylthio]-2-(methylthio)dibenz[b,f]oxepin]
[1]; 10 mg/kg
  Activity (% Inhibition of Climbing): 18%
Tail flick in mice; dose 14.1 mg/kg
  Analgesic Activity (%): 50%

## CN(C)CCSC1Cc2ccccc2Oc2ccc(Cl)cc21.O=C(O)C(=O)O (stereo not drawn) [2-chloro-10,11-dihydro-11-[β-(dimethylamino)-ethylthio]-dibenz[b,f]oxepin oxalate]
[2]; ip, intraperitoneal dose
  ED50: 3.5 mg/kg
[3]
  ED50: 19.4 mg/kg

## CN(C)CCSC1=Cc2ccccc2Oc2ccc(Cl)cc21 [2-chloro-11-[β-(dimethylamino)ethylthio]dibenz[b,f]oxepin]
[1]; 10 mg/kg
  Activity (% Inhibition of Climbing): 5%
Tail flick in mice; dose 25 mg/kg
  Analgesic Activity (%): 20%

## CN(C)CCSC1=Cc2ccccc2Oc2ccccc21 [10-[β-(dimethylamino)ethylthio]dibenz[b,f]oxepin]
[1]; 15 mg/kg
  Activity (% Inhibition of Climbing): 20%
Tail flick in mice; dose 25 mg/kg
  Analgesic Activity (%): 30%

## CNCCSC1=Cc2ccccc2Oc2ccc(F)cc21.O=C(O)/C=C\C(=O)O [2-fluoro-11-[β-(methylamino)ethylthio]dibenz[b,f]oxepin maleate]
[2]; ip, intraperitoneal dose
  ED50: 0.3 mg/kg
[4]
  ED50: 2.3 mg/kg
[3]
  ED50: 9.9 mg/kg

## Br.CN(C)CCSC1=Cc2ccccc2Oc2ccc(F)cc21 [2-fluoro-11-[β-(dimethylamino)ethylthio]dibenz[b,f]oxepin hydrobromide]
[2]; ip, intraperitoneal dose
  ED50: 4.3 mg/kg
[3]
  ED50: 9.2 mg/kg

## CNCCSC1=Cc2ccccc2Oc2ccccc21.O=C(O)C(=O)O [10-[β(methylamino)ethylthio]dibenz[b,f]oxepin oxalate]
[2]; ip, intraperitoneal dose
  ED50: 3.4 mg/kg
[4]
  ED50: 2.3 mg/kg
[3]
  ED50: 21 mg/kg

## CN(C)CCOC1=Cc2ccccc2Oc2ccc(F)cc21 [2-fluoro-11-[β-(dimethylamino)ethoxy]dibenz[b,f]oxepin]
[5]; [7]
  visible change of the acidified solution on warming: became white and cloudy
[5]; 25 ml stock + 2.5 ml concentrated hydrochloric acid, further reflux 10 mins, to 10,11-dihydro-10-oxodibenz[b,f]oxepin
  decomposition on reflux after addition of concentrated hydrochloric acid: complete decomposition
[5]; water, 200 mg/100 ml, reflux, 45 minutes
  decomposition on reflux of aqueous stock solution: no apparent decomposition
[5]; water, concentrated hcl, 0.2 ml concentrated hydrochloric acid, warming (not reflux) for 2 minutes, read-out: decomposed to 10,11-dihydro-10-oxodibenz[b,f]oxepin by GC analysis
  degraded at 2 min: 87.2%
[5]; water, concentrated hcl, 2 min, ambient temperature, 2.0 ml stock + 0.2 ml concentrated hydrochloric acid, product 10,11-dihydro-10-oxodibenz[b,f]oxepin, read-out: % Increase in decomposition product
  degraded at 2 min: 0.35%
[5]; water, concentrated hcl, 60 min, ambient temperature, 2.0 ml stock + 0.2 ml concentrated hydrochloric acid, product 10,11-dihydro-10-oxodibenz[b,f]oxepin, read-out: % Increase in decomposition product
  degraded at 1 h: 2.16%
[5]; water, concentrated hcl, 140 min, ambient temperature, 2.0 ml stock + 0.2 ml concentrated hydrochloric acid, product 10,11-dihydro-10-oxodibenz[b,f]oxepin, read-out: % Increase in decomposition product
  degraded at 140 min: 3%

## CNCCSC1=Cc2ccccc2Oc2ccccc21 [10-[β-(methylamino)ethylthio]dibenz[b,f]oxepin]
Tail flick in mice; dose 11.6 mg/kg
  Analgesic Activity (%): 50%

## CN(C)CCSC1Cc2ccccc2Oc2ccc(F)cc21.O=C(O)C(=O)O (stereo not drawn) [2-fluoro-10,11-dihydro-11-[β-(dimethylamino)ethylthio]dibenz[b,f]oxepin oxalate]
[2]; oral dose (footnote *)
  ED50: 7.6 mg/kg
[4]
  ED50: 1.9 mg/kg
[3]
  ED50: 9 mg/kg

## CN(C)CCSC1=Cc2ccccc2Oc2ccc(F)cc21 [2-fluoro-11-[β-(dimethylamino)ethylthio]dibenz[b,f]oxepin]
[1]; 10 mg/kg
  Activity (% Inhibition of Climbing): 10%
Tail flick in mice; dose 23.9 mg/kg
  Analgesic Activity (%): 50%
[5]; [7]
  decomposition by GC analysis (in words): did not decompose
  visible change of the acidified solution on warming: remained clear and colorless

## CN(C)CCOC1Cc2ccccc2Sc2ccc(Cl)cc21 (centres unmarked) [Amethoclothepine]
[6]
  central depressant activity (in words): central depressant activity

## CNCCSC1=Cc2ccccc2Oc2ccc(F)cc21 [2-fluoro-11-[β-(methylamino)ethylthio]dibenz[b,f]oxepin]
Tail flick in mice; dose 11.3 mg/kg
  Analgesic Activity (%): 50%

## CN(C)CCSC1Cc2ccccc2Oc2ccccc21 (stereo not drawn) [10,11-dihydro-10-[β-(dimethylamino)ethylthio[dibenz[b,f]oxepin oxalate]
[2]; ip, intraperitoneal dose
  ED50: 7 mg/kg
[3]
  ED50: 7.7 mg/kg

Reference: patent publication US4837227A, “Aminoalkylthiodibenzoxepins and pharmaceutical use” (Hoechst-Roussel Pharmaceuticals, Inc., priority 1985, dated 1989)
